{
  "source": "patent US12708630B2",
  "about": "“Combined therapy of 4′-thio-5-aza-2′-deoxycytidine and Venetoclax” (PINOTBIO, INC., priority 2021, dated 2026)",
  "assay_in_all_cases": "drug activity profiling cytotoxicity",
  "assay_type_in_all_cases": "cell-based",
  "key": {"Mia PaCa-2": {"tested_on": "Mia PaCa-2", "settings": "Homo sapiens; Mia PaCa-2 cell line, Pancreas; read-out: Aza-T-dCyd IC50", "summary_of_the_method": "(§1)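 Values come from a cytotoxicity profile of Aza-T-dCyd generated over a collection of 200 cancer cell lines.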"}, "RPMI-7951": {"tested_on": "RPMI-7951", "settings": "Homo sapiens; RPMI-7951 cell line, Skin (Melanoma); read-out: Aza-T-dCyd IC50", "summary_of_the_method": "as §1"}, "A-673": {"tested_on": "A-673", "settings": "Homo sapiens, A673; A-673 cell line, Sarcoma; read-out: Aza-T-dCyd IC50", "summary_of_the_method": "as §1"}, "SCC-9": {"tested_on": "SCC-9", "settings": "Homo sapiens; SCC-9 cell line, Head and Neck; read-out: Aza-T-dCyd IC50", "summary_of_the_method": "as §1"}, "SCC-25": {"tested_on": "SCC-25", "settings": "Homo sapiens; SCC-25 cell line, Head and Neck; read-out: Aza-T-dCyd IC50", "summary_of_the_method": "as §1"}, "Raji": {"tested_on": "Raji", "settings": "Homo sapiens; Raji cell line, Burkitt's lymphoma; read-out: Aza-T-dCyd IC50", "summary_of_the_method": "as §1"}, "LS1034": {"tested_on": "LS1034", "settings": "Homo sapiens, LS-1034; LS1034 cell line, Colon; read-out: Aza-T-dCyd IC50", "summary_of_the_method": "as §1"}, "T98G": {"tested_on": "T98G", "settings": "Homo sapiens; T98G cell line, CNS (Glioma); read-out: Aza-T-dCyd IC50", "summary_of_the_method": "as §1"}, "CA46": {"tested_on": "CA46", "settings": "Homo sapiens; CA46 cell line, Burkitt's lymphoma; read-out: Aza-T-dCyd IC50", "summary_of_the_method": "as §1"}, "SK-N-FI": {"tested_on": "SK-N-FI", "settings": "Homo sapiens; SK-N-FI cell line, CNS (Neuroblastoma); read-out: Aza-T-dCyd IC50", "summary_of_the_method": "as §1"}, "Jurkat": {"tested_on": "Jurkat", "settings": "Homo sapiens; Jurkat cell line, ALL; read-out: Aza-T-dCyd IC50", "summary_of_the_method": "as §1"}, "TCCSUP": {"tested_on": "TCCSUP", "settings": "Homo sapiens, TCC-SUP; TCCSUP cell line, Bladder; read-out: Aza-T-dCyd IC50", "summary_of_the_method": "as §1"}, "SKOV3": {"tested_on": "SKOV3", "settings": "Homo sapiens, SK-OV-3; SKOV3 cell line, Female GU (Ovary); read-out: Aza-T-dCyd IC50", "summary_of_the_method": "as §1"}, "HT-29": {"tested_on": "HT-29", "settings": "Homo sapiens; HT-29 cell line, Colon; read-out: Aza-T-dCyd IC50", "summary_of_the_method": "as §1"}, "MALME3M": {"tested_on": "MALME3M", "settings": "Homo sapiens, Malme-3M; MALME3M cell line, Skin (Melanoma); read-out: Aza-T-dCyd IC50", "summary_of_the_method": "as §1"}, "MCF7": {"tested_on": "MCF7", "settings": "Homo sapiens; MCF7 cell line, Breast; read-out: Aza-T-dCyd IC50", "summary_of_the_method": "as §1"}, "A7": {"tested_on": "A7", "settings": "A7 cell line, Skin (Melanoma); read-out: Aza-T-dCyd IC50", "summary_of_the_method": "as §1"}, "A388": {"tested_on": "A388", "settings": "A388 cell line, Skin (Head and Neck); read-out: Aza-T-dCyd IC50", "summary_of_the_method": "as §1"}, "A-704": {"tested_on": "A-704", "settings": "Homo sapiens, A704; A-704 cell line, Kidney; read-out: Aza-T-dCyd IC50", "summary_of_the_method": "as §1"}, "DMS273": {"tested_on": "DMS273", "settings": "Homo sapiens, DMS-273; DMS273 cell line, Lung (SCLC); read-out: Aza-T-dCyd IC50", "summary_of_the_method": "as §1"}, "SW480": {"tested_on": "SW480", "settings": "Homo sapiens; SW480 cell line, Colon; read-out: Aza-T-dCyd IC50", "summary_of_the_method": "as §1"}, "MDA MB 415": {"tested_on": "MDA MB 415", "settings": "Homo sapiens; MDA MB 415 cell line, Breast; read-out: Aza-T-dCyd IC50", "summary_of_the_method": "as §1"}, "MDA MB 453": {"tested_on": "MDA MB 453", "settings": "Homo sapiens; MDA MB 453 cell line, Breast; read-out: Aza-T-dCyd IC50", "summary_of_the_method": "as §1"}, "A375": {"tested_on": "A375", "settings": "Homo sapiens, A-375; A375 cell line, Skin (Melanoma); read-out: Aza-T-dCyd IC50", "summary_of_the_method": "as §1"}, "Caki-2": {"tested_on": "Caki-2", "settings": "Homo sapiens; Caki-2 cell line, Kidney; read-out: Aza-T-dCyd IC50", "summary_of_the_method": "as §1"}, "SW579": {"tested_on": "SW579", "settings": "SW579 cell line, Endocrine (Thyroid); read-out: Aza-T-dCyd IC50", "summary_of_the_method": "as §1"}, "NCIH441": {"tested_on": "NCIH441", "settings": "Homo sapiens, NCI-H441; NCIH441 cell line, Lung (NSCLC); read-out: Aza-T-dCyd IC50", "summary_of_the_method": "as §1"}, "NCI-H292": {"tested_on": "NCI-H292", "settings": "Homo sapiens; NCI-H292 cell line, Lung (NSCLC); read-out: Aza-T-dCyd IC50", "summary_of_the_method": "as §1"}, "SK-BR-3": {"tested_on": "SK-BR-3", "settings": "Homo sapiens; SK-BR-3 cell line, Breast; read-out: Aza-T-dCyd IC50", "summary_of_the_method": "as §1"}, "NAMALWA": {"tested_on": "NAMALWA", "settings": "NAMALWA cell line, Burkitt's lymphoma; read-out: Aza-T-dCyd IC50", "summary_of_the_method": "as §1"}},
  "data": [
    {"smiles": "Nc1ncn([C@H]2CC(O)[C@@H](CO)S2)c(=O)n1", "note": "(stereo partly drawn) [Aza-T-dCyd, 4′-thio-5-aza-2′-deoxycytidine]", "values": [
      {"measurement": "IC50", "setting": "Mia PaCa-2", "result": 881, "unit": "nM"},
      {"measurement": "IC50", "setting": "RPMI-7951", "result": 527, "unit": "nM"},
      {"measurement": "IC50", "setting": "A-673", "result": 698, "unit": "nM"},
      {"measurement": "IC50", "setting": "SCC-9", "result": 1830, "unit": "nM"},
      {"measurement": "IC50", "setting": "SCC-25", "result": 126, "unit": "nM"},
      {"measurement": "IC50", "setting": "Raji", "result": 75.2, "unit": "nM"},
      {"measurement": "IC50", "setting": "LS1034", "result": 1410, "unit": "nM"},
      {"measurement": "IC50", "setting": "T98G", "result": 1390, "unit": "nM"},
      {"measurement": "IC50", "setting": "CA46", "result": 25.5, "unit": "nM"},
      {"measurement": "IC50", "setting": "SK-N-FI", "result": 2710, "unit": "nM"},
      {"measurement": "IC50", "setting": "Jurkat", "result": 69.5, "unit": "nM"},
      {"measurement": "IC50", "setting": "TCCSUP", "result": 1180, "unit": "nM"},
      {"measurement": "IC50", "setting": "SKOV3", "result": 2920, "unit": "nM"},
      {"measurement": "IC50", "setting": "HT-29", "result": 323, "unit": "nM"},
      {"measurement": "IC50", "setting": "MALME3M", "result": 7450, "unit": "nM"},
      {"measurement": "IC50", "setting": "MCF7", "result": 6470, "unit": "nM"},
      {"measurement": "IC50", "setting": "A7", "result": 1190, "unit": "nM"},
      {"measurement": "IC50", "setting": "A388", "result": 190, "unit": "nM"},
      {"measurement": "IC50", "setting": "A-704", "result": "> 10000", "unit": "nM"},
      {"measurement": "IC50", "setting": "DMS273", "result": 5660, "unit": "nM"},
      {"measurement": "IC50", "setting": "SW480", "result": 1580, "unit": "nM"},
      {"measurement": "IC50", "setting": "MDA MB 415", "result": "> 10000", "unit": "nM"},
      {"measurement": "IC50", "setting": "MDA MB 453", "result": 1890, "unit": "nM"},
      {"measurement": "IC50", "setting": "A375", "result": 66.7, "unit": "nM"},
      {"measurement": "IC50", "setting": "Caki-2", "result": 363, "unit": "nM"},
      {"measurement": "IC50", "setting": "SW579", "result": 1050, "unit": "nM"},
      {"measurement": "IC50", "setting": "NCIH441", "result": 1300, "unit": "nM"},
      {"measurement": "IC50", "setting": "NCI-H292", "result": 194, "unit": "nM"},
      {"measurement": "IC50", "setting": "SK-BR-3", "result": 9320, "unit": "nM"},
      {"measurement": "IC50", "setting": "NAMALWA", "result": 10.9, "unit": "nM"}
    ]}
  ]
}
